Experimental data taken from patent publication US8318731B2, “Pyrrolopyrimidines” (Janssen Pharmaceutica NV, priority 2007, dated 2012).

Columns and labels:
[1] = target: T1, PLK4 (h) (Homo sapiens, UniProt O00444); assay: PLK-4 human kinase scintillation proximity assay (SPA); format: biochemical; details: 1 μM ATP, 60 minutes at r.t., read-out: PLK4 pIC50 (converted)
T1 sequence (O00444 1-970): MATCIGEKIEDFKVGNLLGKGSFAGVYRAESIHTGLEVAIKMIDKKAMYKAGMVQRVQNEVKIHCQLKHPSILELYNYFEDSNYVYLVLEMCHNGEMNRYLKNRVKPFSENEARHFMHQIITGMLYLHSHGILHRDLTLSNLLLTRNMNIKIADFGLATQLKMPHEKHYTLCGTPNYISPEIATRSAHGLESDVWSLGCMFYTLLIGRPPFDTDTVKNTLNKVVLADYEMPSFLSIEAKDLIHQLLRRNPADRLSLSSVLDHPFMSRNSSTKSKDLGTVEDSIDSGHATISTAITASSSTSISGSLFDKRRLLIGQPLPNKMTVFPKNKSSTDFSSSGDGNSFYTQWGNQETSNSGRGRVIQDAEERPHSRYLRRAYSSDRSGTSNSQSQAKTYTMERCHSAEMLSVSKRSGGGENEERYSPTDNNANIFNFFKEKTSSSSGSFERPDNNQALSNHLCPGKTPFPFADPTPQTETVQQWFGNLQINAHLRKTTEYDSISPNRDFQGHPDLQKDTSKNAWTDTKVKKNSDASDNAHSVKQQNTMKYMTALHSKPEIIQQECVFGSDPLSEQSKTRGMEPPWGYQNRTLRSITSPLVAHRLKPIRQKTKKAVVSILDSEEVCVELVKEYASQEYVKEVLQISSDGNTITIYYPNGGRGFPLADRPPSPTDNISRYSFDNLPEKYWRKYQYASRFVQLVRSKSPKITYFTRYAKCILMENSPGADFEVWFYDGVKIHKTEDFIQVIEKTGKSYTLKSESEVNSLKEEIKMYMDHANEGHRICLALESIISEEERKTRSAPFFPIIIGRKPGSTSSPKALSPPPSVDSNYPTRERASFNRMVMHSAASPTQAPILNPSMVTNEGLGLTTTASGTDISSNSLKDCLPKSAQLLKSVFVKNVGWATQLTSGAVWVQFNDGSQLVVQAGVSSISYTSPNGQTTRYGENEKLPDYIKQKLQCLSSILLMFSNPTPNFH
Outline: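 Scintillation proximity read-out: EDTA-stopped reactions were captured on streptavidin SPA beads after PLK4 (19 μg/ml) had phosphorylated 10 μM biotin-peptide for 60 min at room temperature, using 1 μM ATP spiked with 2 nM 33P-ATP in pH 8.0 HEPES buffer.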

[2] = tested on: HCT-116; assay: Cellular proliferation assay (Alamar blue), HCT-116; format: cell-based; details: Homo sapiens; HCT-116 cells; 10% FCS; 72 h with compound; Alamar blue 4 h; read-out: pIC50 HCT-116 (converted)
Outline: (§1)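 Resazurin-based Alamar blue fluorescence (544/590 nm) measured viable cell number after 72 h compound exposure, following 24 h compound-free seeding, with 10% FCS, 37° C, 5% CO2. Dye incubation lasted 24 h for PC3 and A2780, 6 h for U87-MG, 4 h for HCT-116; results relative to untreated controls.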

[3] = tested on: H1299; assay: Cellular proliferation assay (Alamar blue), H1299; format: cell-based; details: Homo sapiens, NCI-H1299, H1299 cells; 10% FCS; 72 h with compound; Alamar blue 4 h; read-out: pIC50 H1299 (converted)
Outline: (§2)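 Viable cell number is determined by Alamar blue conversion after cells are treated with compound for 72 hours, following 24 hours of growth without compound in 10% FCS. The effect is calculated against control cells.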

[4] = tested on: U87-MG; assay: Cellular proliferation assay (Alamar blue), U87-MG; format: cell-based; details: Homo sapiens, U-87 MG; U87-MG cells; 10% FCS; 72 h with compound; Alamar blue 6 h; read-out: pIC50 U87MG (converted)
Outline: as §1

[5] = tested on: A2780; assay: Cellular proliferation assay (Alamar blue), A2780; format: cell-based; details: Homo sapiens, A2780, A2780 cells; 10% FCS; 72 h with compound; Alamar blue 24 h; read-out: pIC50 A2780 (converted)
Outline: as §1

[6] = tested on: PC3; assay: Cellular proliferation assay (Alamar blue), PC3; format: cell-based; details: Homo sapiens, PC-3, PC-3 cells; 10% FCS; 72 h with compound; Alamar blue 24 h; read-out: pIC50 PC-3 (converted)
Outline: as §1

[7] = tested on: MDA-MB-231; assay: Cellular proliferation assay (Alamar blue), MDA-MB-231; format: cell-based; details: Homo sapiens, MDA-MB-231, MDA-MB-231 cells; 10% FCS; 72 h with compound; Alamar blue 24 h; read-out: pIC50 MDA/MB231 (converted)
Outline: as §2

CN1CCN(C)C(=O)CCc2cc(ccc2N2CCOCC2)Nc2ncnc3[nH]cc(c23)C1 [Compound 45]
IC50 [1]: 3.16 µM | IC50 [2]: > 10 µM | IC50 [3]: > 10 µM | IC50 [4]: > 10 µM | IC50 [5]: > 10 µM | IC50 [6]: > 10 µM | IC50 [7]: > 10 µM

COc1ccc2cc1CCC(=O)N(C)CCN(C)Cc1c[nH]c3ncnc(c13)N2 [Compound 46]
IC50 [1]: 1 µM | IC50 [2]: > 10 µM | IC50 [3]: > 10 µM | IC50 [4]: > 10 µM | IC50 [5]: > 10 µM | IC50 [6]: > 10 µM | IC50 [7]: > 10 µM

COc1cc2cc(c1OC)CCC(=O)N(C)CCN(C)Cc1c[nH]c3ncnc(c13)N2 [Compound 47]
IC50 [1]: 6.31 µM | IC50 [2]: > 10 µM | IC50 [3]: > 10 µM | IC50 [4]: > 10 µM | IC50 [5]: > 10 µM | IC50 [6]: > 10 µM | IC50 [7]: > 10 µM

CN1CCN(C)C(=O)CCCCOc2cc(ccc2N2CCOCC2)Nc2ncnc3[nH]cc(c23)C1 [Compound 48]
IC50 [1]: > 10 µM | IC50 [2]: > 10 µM | IC50 [3]: > 10 µM | IC50 [4]: > 10 µM | IC50 [5]: > 10 µM | IC50 [6]: > 10 µM | IC50 [7]: > 3.16 µM

CN1CCN(C)C(=O)CCCCOc2cc(ccc2Cl)Nc2ncnc3[nH]cc(c23)C1 [Compound 49]
IC50 [1]: 3.16 µM | IC50 [2]: > 10 µM | IC50 [3]: > 10 µM | IC50 [4]: > 10 µM | IC50 [5]: > 10 µM | IC50 [6]: > 10 µM | IC50 [7]: > 10 µM

CN1CCCN(C)C(=O)COc2cc(cc(C(F)(F)F)c2)Nc2ncnc3[nH]cc(c23)C1 [Compound 54]
IC50 [1]: 0.251 µM | IC50 [2]: > 10 µM | IC50 [3]: > 10 µM | IC50 [4]: > 10 µM | IC50 [5]: > 10 µM | IC50 [6]: > 10 µM | IC50 [7]: > 10 µM

CN1CCCN(C)C(=O)CCc2cc(ccc2N2CCOCC2)Nc2ncnc3[nH]cc(c23)C1 [Compound 56]
IC50 [1]: 5.01 µM | IC50 [2]: > 10 µM | IC50 [3]: > 10 µM | IC50 [4]: > 10 µM | IC50 [5]: > 10 µM | IC50 [6]: > 10 µM | IC50 [7]: > 10 µM

COc1cc2cc(c1OC)OCC(=O)N(C)CCCN(C)Cc1c[nH]c3ncnc(c13)N2 [Compound 57]
IC50 [1]: 3.98 µM | IC50 [2]: > 10 µM | IC50 [3]: > 10 µM | IC50 [4]: > 10 µM | IC50 [5]: > 10 µM | IC50 [6]: > 10 µM | IC50 [7]: > 10 µM

CN1CCN(C)C(=O)COc2cccc(c2)Nc2ncnc3[nH]cc(c23)C1 [Compound 58]
IC50 [1]: 0.0501 µM | IC50 [2]: 2.51 µM | IC50 [3]: 5.01 µM | IC50 [4]: 6.31 µM | IC50 [5]: 3.16 µM | IC50 [6]: 7.94 µM | IC50 [7]: 10 µM

COc1ccc2cc1OCC(=O)N(C)CCCN(CC1CC1)Cc1c[nH]c3ncnc(c13)N2 [Compound 59]
IC50 [1]: 0.158 µM | IC50 [2]: > 10 µM | IC50 [3]: > 10 µM | IC50 [4]: > 10 µM | IC50 [5]: > 10 µM | IC50 [6]: > 10 µM | IC50 [7]: > 10 µM

COc1ccc2cc1OCC(=O)N(C)CCN(C)CCCc1c[nH]c3ncnc(c13)N2 [Compound 60]
IC50 [1]: 1 µM | IC50 [2]: > 10 µM | IC50 [3]: > 10 µM | IC50 [4]: > 10 µM | IC50 [5]: > 10 µM | IC50 [6]: > 10 µM | IC50 [7]: > 10 µM

COc1ccc2cc1OCC(=O)N(C)CCCN(Cc1ccccc1)Cc1c[nH]c3ncnc(c13)N2 [Compound 61]
IC50 [1]: 0.1 µM | IC50 [2]: > 10 µM | IC50 [3]: > 10 µM | IC50 [4]: > 10 µM | IC50 [5]: > 10 µM | IC50 [6]: > 10 µM | IC50 [7]: > 10 µM

COc1ccc2cc1OCC(=O)N(C)CCCN(Cc1ccncc1)Cc1c[nH]c3ncnc(c13)N2 [Compound 62]
IC50 [1]: 0.631 µM | IC50 [2]: > 10 µM | IC50 [3]: > 10 µM | IC50 [4]: > 10 µM | IC50 [5]: > 10 µM | IC50 [6]: > 10 µM | IC50 [7]: > 10 µM

CCOc1ccc2cc1OCC(=O)N(C)CCCN(C)Cc1c[nH]c3ncnc(c13)N2 [Compound 63]
IC50 [1]: 0.0794 µM | IC50 [2]: 0.631 µM | IC50 [3]: 2 µM | IC50 [4]: 2 µM | IC50 [5]: 0.501 µM | IC50 [6]: 2.51 µM | IC50 [7]: 3.16 µM

COc1ccc2cc1OCC(=O)N(C1CCCCC1)CCCN(C)Cc1c[nH]c3ncnc(c13)N2 [Compound 64]
IC50 [1]: 0.251 µM | IC50 [2]: > 10 µM | IC50 [3]: > 10 µM | IC50 [4]: > 10 µM | IC50 [5]: > 10 µM | IC50 [6]: > 10 µM | IC50 [7]: > 10 µM

COc1ccc2cc1OCC(=O)N(C)CCCNCc1c[nH]c3ncnc(c13)N2 [Compound 65]
IC50 [1]: 0.0794 µM | IC50 [2]: > 10 µM | IC50 [3]: > 10 µM | IC50 [4]: > 10 µM | IC50 [5]: > 10 µM | IC50 [6]: > 10 µM | IC50 [7]: > 10 µM

CN1CCCN(C)C(=O)COc2cc(ccc2NC(=O)NC2CCCC2)Nc2ncnc3[nH]cc(c23)C1 [Compound 66]
IC50 [1]: 0.0398 µM | IC50 [2]: 5.01 µM | IC50 [3]: > 10 µM | IC50 [4]: 1.58 µM | IC50 [5]: > 10 µM | IC50 [6]: 7.94 µM | IC50 [7]: > 10 µM

CN1CCCN(C)C(=O)COc2cc(ccc2NC(=O)Nc2cccc(Cl)c2)Nc2ncnc3[nH]cc(c23)C1 [Compound 67]
IC50 [1]: 0.0631 µM | IC50 [2]: 0.794 µM | IC50 [3]: 2.51 µM | IC50 [4]: > 10 µM | IC50 [5]: 2.51 µM | IC50 [6]: > 10 µM | IC50 [7]: > 10 µM

CN1CCCN(C)C(=O)COc2cc(ccc2OCC2CC2)Nc2ncnc3[nH]cc(c23)C1 [Compound 68]
IC50 [1]: 0.0398 µM | IC50 [2]: 0.631 µM | IC50 [3]: 1.58 µM | IC50 [4]: 1.58 µM | IC50 [5]: 0.631 µM | IC50 [6]: 3.16 µM | IC50 [7]: 2 µM
